From US5618830A (priority 1995, dated 1997)
Structures can show the parent of a compound that is named as a salt. Where two headings read alike, the source gives them in different places.

Key:
Hela RNA Polymerase II = target: T1, Hela RNA Polymerase II (Homo sapiens, UniProt P24928); experiment: Hela RNA polymerase II run-off transcription; type: biochemical
T1 construct: Hela RNA polymerase II in Hela extract; endogenous in cells; host or cells: HeLa extract
Protocol: d. Hela RNA polymerase II-Compounds or DMSO were incubated in a run-off transcription assay using Hela RNA polymerase II in Hela extract with 50 ng/μl of pD5 template (Adeno major late promoter) in a final reaction containing 500 μM A,C,GTP and 0.5 μM [32]P-UTP in 15 mM Tris-HCl, pH 7.9/7.0 mM MGCl2 /32 mM (NH4)2 SO4 /0.2 mM EDTA/1.3 mM DTT for 60 min at 30° C. Following ethanol precipitation, reaction products were electrophoresed on 8% polyacrylamide gels containing 7M urea.

[1] = target: cap-independent influenza transcription primed with ApG (Influenza A virus, UniProt P03431); experiment: biochemical
Chain of cap-independent influenza transcription primed with ApG (P03431 whole entry, looked up): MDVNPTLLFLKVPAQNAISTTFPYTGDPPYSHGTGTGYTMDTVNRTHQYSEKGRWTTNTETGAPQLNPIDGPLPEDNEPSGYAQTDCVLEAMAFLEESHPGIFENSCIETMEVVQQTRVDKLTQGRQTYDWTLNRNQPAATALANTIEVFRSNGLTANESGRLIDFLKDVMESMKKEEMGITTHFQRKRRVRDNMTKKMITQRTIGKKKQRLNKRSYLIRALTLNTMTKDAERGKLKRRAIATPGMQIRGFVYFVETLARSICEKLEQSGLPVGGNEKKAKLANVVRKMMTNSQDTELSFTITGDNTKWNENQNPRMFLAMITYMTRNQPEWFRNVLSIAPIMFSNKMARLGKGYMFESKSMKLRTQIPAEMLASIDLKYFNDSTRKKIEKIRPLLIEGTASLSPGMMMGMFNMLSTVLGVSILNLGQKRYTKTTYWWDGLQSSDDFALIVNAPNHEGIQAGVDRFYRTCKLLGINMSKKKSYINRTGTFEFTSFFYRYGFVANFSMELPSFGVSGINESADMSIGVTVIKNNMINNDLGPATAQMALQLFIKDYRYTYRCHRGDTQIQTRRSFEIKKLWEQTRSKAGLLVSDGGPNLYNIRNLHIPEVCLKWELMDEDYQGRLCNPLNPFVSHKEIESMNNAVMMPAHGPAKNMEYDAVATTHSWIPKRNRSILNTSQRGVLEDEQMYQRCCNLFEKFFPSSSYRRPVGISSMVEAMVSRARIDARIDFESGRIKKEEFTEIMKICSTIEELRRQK

Influenza Endonuclease = Influenza Endonuclease (Influenza A virus, UniProt P03433); experiment: biochemical
[2] = target: EcoRI Restriction Endonuclease (Escherichia coli, UniProt P00642); experiment: EcoRI Restriction Endonuclease assay; type: biochemical
Chain of EcoRI Restriction Endonuclease (P00642 2-277): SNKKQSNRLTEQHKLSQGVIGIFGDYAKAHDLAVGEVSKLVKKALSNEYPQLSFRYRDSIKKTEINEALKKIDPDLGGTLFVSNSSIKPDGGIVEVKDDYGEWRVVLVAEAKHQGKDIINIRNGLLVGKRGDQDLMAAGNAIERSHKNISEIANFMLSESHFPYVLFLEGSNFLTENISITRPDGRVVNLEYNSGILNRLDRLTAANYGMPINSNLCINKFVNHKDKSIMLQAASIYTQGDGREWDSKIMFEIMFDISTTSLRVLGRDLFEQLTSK

RNase A = RNase A (Bos taurus, UniProt P61823); experiment: RNase A assay
Chain of RNase A (P61823 27-150): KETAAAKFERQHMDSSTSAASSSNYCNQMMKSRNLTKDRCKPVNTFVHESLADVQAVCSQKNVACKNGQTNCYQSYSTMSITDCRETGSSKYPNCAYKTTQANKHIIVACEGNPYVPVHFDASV

[3] = target: influenza virus transcription (Influenza A virus (A/Japan/305-/1957(H2N2)), UniProt Q1K9Q4); type: biochemical, influenza virus A/Japan/305/57 (H2N2); conditions: read-out: IC50, inhibition of influenza virus transcription; virus strain A/Japan/305/57 (H2N2); primed with cap1 ALMV
[4] = test system: influenza virus transcription; experiment: in vitro transcription primed with cap1 ALMV, B/Hong Kong/5/72; type: biochemical, influenza virus B/Hong Kong/5/72; conditions: virus strain B/Hong Kong/5/72, read-out: IC50, inhibition of influenza virus transcription
VSV transcription = VSV transcription (Vesicular stomatitis Indiana virus, UniProt P03523); experiment: biochemical
Chain of VSV transcription (P03523 whole entry, looked up): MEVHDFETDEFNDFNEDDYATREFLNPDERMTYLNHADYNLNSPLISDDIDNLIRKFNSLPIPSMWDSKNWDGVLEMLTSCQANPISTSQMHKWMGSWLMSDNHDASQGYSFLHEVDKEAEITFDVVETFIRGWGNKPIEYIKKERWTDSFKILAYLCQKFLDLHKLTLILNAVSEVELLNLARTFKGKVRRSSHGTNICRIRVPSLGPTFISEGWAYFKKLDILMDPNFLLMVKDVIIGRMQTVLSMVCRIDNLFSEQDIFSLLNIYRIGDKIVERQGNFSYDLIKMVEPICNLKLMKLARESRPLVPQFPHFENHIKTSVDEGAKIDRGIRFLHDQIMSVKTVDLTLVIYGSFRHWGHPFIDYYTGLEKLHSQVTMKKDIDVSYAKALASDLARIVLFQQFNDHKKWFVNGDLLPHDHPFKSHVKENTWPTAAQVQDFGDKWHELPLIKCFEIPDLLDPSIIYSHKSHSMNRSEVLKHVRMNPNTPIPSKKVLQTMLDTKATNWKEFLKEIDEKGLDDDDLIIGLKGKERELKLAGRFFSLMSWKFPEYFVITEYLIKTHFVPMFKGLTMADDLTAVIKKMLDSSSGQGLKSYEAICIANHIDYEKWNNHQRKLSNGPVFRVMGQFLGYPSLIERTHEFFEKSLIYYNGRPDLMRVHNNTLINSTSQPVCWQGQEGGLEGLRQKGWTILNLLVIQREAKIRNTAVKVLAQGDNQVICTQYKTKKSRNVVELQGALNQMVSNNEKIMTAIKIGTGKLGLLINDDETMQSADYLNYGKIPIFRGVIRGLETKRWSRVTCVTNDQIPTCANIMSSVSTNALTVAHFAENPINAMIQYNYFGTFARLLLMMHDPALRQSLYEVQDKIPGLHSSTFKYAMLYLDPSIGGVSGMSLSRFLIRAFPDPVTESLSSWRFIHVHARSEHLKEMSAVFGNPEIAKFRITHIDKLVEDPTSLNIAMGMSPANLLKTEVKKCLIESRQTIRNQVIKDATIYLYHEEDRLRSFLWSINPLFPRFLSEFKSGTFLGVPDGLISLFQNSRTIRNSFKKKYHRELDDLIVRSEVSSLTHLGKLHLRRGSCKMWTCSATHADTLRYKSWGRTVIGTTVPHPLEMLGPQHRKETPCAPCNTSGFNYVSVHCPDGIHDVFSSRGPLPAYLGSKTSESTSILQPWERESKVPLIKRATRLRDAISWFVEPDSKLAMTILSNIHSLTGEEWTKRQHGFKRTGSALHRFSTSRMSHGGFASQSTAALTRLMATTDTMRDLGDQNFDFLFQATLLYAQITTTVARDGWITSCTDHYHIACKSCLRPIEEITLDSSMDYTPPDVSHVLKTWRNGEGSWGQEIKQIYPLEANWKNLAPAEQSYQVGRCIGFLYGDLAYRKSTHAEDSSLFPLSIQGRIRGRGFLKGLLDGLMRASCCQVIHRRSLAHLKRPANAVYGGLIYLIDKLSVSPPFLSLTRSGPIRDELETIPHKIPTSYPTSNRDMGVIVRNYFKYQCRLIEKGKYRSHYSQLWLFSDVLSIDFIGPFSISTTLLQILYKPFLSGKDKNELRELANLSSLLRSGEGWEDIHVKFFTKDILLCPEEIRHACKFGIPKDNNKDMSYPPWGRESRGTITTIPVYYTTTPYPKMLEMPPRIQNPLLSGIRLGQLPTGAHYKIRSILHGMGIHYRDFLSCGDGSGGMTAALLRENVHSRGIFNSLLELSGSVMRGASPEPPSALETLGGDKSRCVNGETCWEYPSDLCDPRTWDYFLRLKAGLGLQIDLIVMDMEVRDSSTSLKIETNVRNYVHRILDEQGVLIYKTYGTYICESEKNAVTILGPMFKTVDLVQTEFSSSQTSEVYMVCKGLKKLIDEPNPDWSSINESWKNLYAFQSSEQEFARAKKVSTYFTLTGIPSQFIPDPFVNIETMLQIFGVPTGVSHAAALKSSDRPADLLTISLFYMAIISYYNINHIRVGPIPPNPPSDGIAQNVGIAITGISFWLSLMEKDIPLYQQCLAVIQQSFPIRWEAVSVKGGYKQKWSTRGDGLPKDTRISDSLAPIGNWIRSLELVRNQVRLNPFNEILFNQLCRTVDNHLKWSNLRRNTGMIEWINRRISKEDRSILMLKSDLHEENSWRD

T7 Phage RNA Polymerase = T7 Phage RNA Polymerase (Escherichia phage T7, UniProt P00573); experiment: T7 Phage RNA Polymerase assay; type: biochemical
Chain of T7 Phage RNA Polymerase (P00573 whole entry): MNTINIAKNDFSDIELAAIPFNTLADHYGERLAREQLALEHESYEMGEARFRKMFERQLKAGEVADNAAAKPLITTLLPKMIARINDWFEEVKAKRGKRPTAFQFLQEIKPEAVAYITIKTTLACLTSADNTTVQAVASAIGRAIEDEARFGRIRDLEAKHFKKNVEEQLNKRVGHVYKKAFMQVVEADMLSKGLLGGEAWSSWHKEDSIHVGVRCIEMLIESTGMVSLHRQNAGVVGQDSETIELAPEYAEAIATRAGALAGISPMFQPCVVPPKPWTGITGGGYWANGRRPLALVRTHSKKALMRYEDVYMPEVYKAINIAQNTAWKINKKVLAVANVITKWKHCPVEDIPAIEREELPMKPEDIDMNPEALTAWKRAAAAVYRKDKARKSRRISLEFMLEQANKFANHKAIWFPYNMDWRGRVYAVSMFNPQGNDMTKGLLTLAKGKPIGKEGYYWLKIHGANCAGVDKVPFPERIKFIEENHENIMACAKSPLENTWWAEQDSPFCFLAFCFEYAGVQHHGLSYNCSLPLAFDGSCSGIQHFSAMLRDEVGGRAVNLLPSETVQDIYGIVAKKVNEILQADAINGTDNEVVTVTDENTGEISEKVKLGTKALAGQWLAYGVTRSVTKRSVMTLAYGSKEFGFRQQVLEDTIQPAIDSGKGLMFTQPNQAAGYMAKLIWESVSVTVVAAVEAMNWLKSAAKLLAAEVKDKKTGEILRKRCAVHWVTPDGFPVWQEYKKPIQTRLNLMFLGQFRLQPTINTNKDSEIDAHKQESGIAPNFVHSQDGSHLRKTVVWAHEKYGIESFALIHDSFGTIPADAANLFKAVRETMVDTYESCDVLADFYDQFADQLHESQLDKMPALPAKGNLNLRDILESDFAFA

HIV RNase H = HIV RNase H (Human immunodeficiency virus type 1 group M subtype B, UniProt P04585); experiment: HIV RNase H assay; type: biochemical
[5] = target: influenza virus transcription (Influenza A virus (A/Port Chalmers/1/1973(H3N2)), UniProt Q1PUD2); type: biochemical, influenza virus A/Port Chalmers/1/73 (H3N2); conditions: read-out: IC50, inhibition of influenza virus transcription
RNase T1 = RNase T1 (Aspergillus oryzae, UniProt P00651); experiment: RNase T1 assay
Chain of RNase T1 (P00651 27-130): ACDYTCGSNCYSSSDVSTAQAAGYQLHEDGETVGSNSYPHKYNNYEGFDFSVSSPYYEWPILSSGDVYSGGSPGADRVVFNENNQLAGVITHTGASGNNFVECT

[6] = target: influenza virus transcription (Influenza A virus (A/nt/60/1968(H3N2)), UniProt P03434); type: biochemical, influenza virus A/Hong Kong/8/68 (H3N2); conditions: read-out: IC50, inhibition of influenza virus transcription; virus strain A/Hong Kong/8/68 (H3N2); primed with cap1 ALMV
RNase U2 = RNase U2 (Ustilago sphaerogena, UniProt P00654); experiment: RNase U2 assay
Chain of RNase U2 (P00654 whole entry): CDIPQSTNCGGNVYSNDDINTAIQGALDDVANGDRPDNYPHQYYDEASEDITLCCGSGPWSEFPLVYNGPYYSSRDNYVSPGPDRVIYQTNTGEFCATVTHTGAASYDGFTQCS

[7] = target: influenza transcription (flu APR8 virus) (Influenza A virus, UniProt P03433); experiment: biochemical; set-up: species or system influenza virus A/PR/8/34 (H1N1)
Hela DNA Polymerase-a = target: T2, Hela DNA Polymerase-a (Homo sapiens, UniProt P09884); experiment: Hela DNA Polymerase-a assay; type: biochemical
T2 construct: Hela cell DNA polymerase α; endogenous in cells; host or cells: HeLa cells
T2 sequence (P09884 1-1462): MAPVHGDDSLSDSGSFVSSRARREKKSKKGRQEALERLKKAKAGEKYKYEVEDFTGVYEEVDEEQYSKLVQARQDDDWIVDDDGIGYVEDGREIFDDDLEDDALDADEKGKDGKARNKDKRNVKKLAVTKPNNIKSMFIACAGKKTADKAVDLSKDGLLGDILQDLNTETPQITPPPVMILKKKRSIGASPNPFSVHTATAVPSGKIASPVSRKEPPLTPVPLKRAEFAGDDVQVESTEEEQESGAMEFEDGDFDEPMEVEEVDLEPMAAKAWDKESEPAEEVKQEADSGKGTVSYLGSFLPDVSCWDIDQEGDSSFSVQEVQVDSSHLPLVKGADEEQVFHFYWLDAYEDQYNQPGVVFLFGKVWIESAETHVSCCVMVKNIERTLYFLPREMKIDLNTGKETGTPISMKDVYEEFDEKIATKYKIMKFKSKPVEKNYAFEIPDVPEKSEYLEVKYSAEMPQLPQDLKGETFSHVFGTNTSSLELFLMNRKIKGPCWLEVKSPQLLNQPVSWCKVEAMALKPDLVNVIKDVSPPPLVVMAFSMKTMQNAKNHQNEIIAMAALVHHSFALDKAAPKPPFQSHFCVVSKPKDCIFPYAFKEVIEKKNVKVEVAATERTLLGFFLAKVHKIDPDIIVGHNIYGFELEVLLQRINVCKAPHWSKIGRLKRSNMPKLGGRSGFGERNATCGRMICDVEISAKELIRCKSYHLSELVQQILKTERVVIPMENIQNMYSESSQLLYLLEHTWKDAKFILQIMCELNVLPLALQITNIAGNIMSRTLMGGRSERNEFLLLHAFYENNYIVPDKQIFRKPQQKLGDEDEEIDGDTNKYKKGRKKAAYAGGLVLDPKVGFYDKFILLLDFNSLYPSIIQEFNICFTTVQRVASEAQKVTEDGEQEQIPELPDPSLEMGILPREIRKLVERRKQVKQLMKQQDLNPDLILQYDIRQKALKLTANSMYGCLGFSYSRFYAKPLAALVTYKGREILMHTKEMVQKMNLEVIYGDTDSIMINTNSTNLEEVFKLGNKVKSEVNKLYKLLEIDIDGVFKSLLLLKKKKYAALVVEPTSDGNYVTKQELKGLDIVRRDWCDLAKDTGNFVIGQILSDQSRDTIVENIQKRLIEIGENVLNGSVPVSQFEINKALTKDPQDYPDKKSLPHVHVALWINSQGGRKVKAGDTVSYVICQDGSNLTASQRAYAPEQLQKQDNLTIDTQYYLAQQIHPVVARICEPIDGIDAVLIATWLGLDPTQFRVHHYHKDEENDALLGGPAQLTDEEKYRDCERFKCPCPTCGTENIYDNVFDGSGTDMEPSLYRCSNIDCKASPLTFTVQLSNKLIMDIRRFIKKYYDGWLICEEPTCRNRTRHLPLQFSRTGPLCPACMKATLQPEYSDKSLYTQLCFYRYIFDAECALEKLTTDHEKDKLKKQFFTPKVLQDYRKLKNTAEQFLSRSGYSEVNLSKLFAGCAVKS

Structure (SMILES): O=C(O)C(=O)CC(=O)C1(Cc2ccc(Cl)cc2)CCCN(Cc2ccccc2)C1 (centres unmarked) [Compound A, 4-[N-benzyl-3-(4-chlorobenzyl)piperidin-3-yl]2,4-dioxobutanoic acid hydrochloride]
- IC50 (Hela RNA Polymerase II): > 500 µM
- IC50 [1]: > 1000 µM
- IC50 (Influenza Endonuclease): 1.8 µM
- IC50 [2]: > 500 µM
- IC50 (RNase A): > 200 µM
- IC50 [3]: 0.25 µM
- IC50 [4]: 0.85 µM
- IC50 (VSV transcription): > 500 µM
- IC50 (T7 Phage RNA Polymerase): > 100 µM
- IC50 (HIV RNase H): 100 µM
- IC50 [5]: 0.5 µM
- IC50 (RNase T1): > 200 µM
- IC50 [6]: 0.62 µM
- IC50 (RNase U2): > 200 µM
- IC50 [7]: 1.1 µM
- IC50 ([7]; read-out: IC50, inhibition of influenza virus transcription): 1.1 µM
- IC50 (Hela DNA Polymerase-a): > 100 µM
